Measurements published in patent US5807832A, “Oral delivery of biologically active substances bound to vitamin B12” (Biotech Australia Pty Limited, priority 1988, dated 1998).

Key:
Assay type in all cases: in vivo
[1] = tested on: Mature C57B1/6J female mice; experiment: Stimulation of ovulation in PMSG-primed mice (corpora haemorrhagica on the ovaries)
Description: Mature C57B1/6J female mice were treated in the following fashion: On day 0 all mice received a subcutaneous (s.'c) superovulating dose of pregnant mare serum gonadotraphin (PMSG) to stimulate the growth of ovarian follicles. After 48 hours mice received various doses of LHRH, Lys-6-LHRH or saline. On day 3 mice were sacrificed and examined for ovulation. Ovulation was assessed by examining for the presence of corpora haemorrhagica on the ovaries using a stereoscopic microscope at […].

[2] = tested on: S. typhimurium; experiment: Systemic S. typhimurium infection in mice: survival and clearance; conditions: for Elimination of systemic S. typhimurium infection / prevention of death (in words): 1 mg total dose; for Suvivors (day 10) Number / Suvivors (day 10) Percentage: total dose 1 mg as five doses 12 h apart from day 3, mice fed 1×10^6 S. typhimurium on day 0
[3] = tested on: C57B1/6J mice; experiment: Serum antibody response (ELISA titre) after oral feeding of antigen; conditions: two feedings of antigen (50 μg) on days 1 and 14, reciprocal of antiserum dilution giving ELISA reading 0.5, day 21, mean of 15 mice ±1 SD
Description: Female C57B1/6J mice (18-22 g) were obtained from the Animal Resources Centre (Perth, Western Australia). All mice received conjugate preparations in 0.5 ml of 0.1M carbonate/bicarbonate buffer pH9.5 using a specially prepared feeding needle. Mice were fed on days 0 and 14. On day 21 the mice were bled from the orbital plexus. Antibody titres of serum were determined by ELISA using alkaline phosphatase conjugated anti-mouse serum.
The possible potential for VB12 deliver protein molecules, covalently linked to it, from the intestine to the circulation was investigated. The immune response generated to this complex was compared to that generated by the protein fed alone or together with VB12, or to the protein injected intramuscularly.
* The reciprocal of the antiserum dilution that gave an ELISA reading of
0.5 afer 45min. at 37° C. on day 21 after initial feeding. Each
value represents the mean of 15 mice ±1 standard deviation. Mice
received two feedings of antigen (50 μg) on days 1 and 14. On day 21
mice were bled from the retro orbital plaxus and the antibody titres
measured by ELISA as described previously (RussellJones et al., 1984).
Each protein molecule was substituted with an average of 5 VB12 groups.

[4] = tested on: C57B1/6J mice; experiment: Footpad assay for DTH (footpad swelling); conditions: oral 50 μg priming dose, challenge with 10 μg immunizing antigen in right foot, swelling after 24 h
Description: Feeding of these VB12-protein complexed was also capable of stimulating good cellular immunity (as measured by the footpad assay for DTH).
+ Footpad swelling was measured in mm using a microcaliper. All groups
received a 50 μg priming dose of antigen followed by challenge with 10
μg of the immunizing antigen in the right foot and 10 μg of
ovalbumen in the left footpad. Swelling was measured after 24 h.

| Substance | Number of mice ovulating ([1]; Table 2, PMSG 4 IU day 0, 50 μg iv day 2) | Number of mice ovulating ([1]; Table 2, PMSG 8 IU day 0, 50 μg iv day 2) | Number of mice ovulating ([1]; Table 3, PMSG 8 IU day 0, 50 μg/os day 2) | Number of mice ovulating ([1]; Table 4, PMSG 8 IU day 0, 6 μg/os day 2) | Number of mice ovulating ([1]; Table 4, PMSG 8 IU day 0, 12 μg/os day 2) | Number of mice ovulating ([1]; Table 4, PMSG 8 IU day 0, 25 μg/os day 2) | Number of mice ovulating ([1]; Table 4, PMSG 8 IU day 0, 50 μg/os day 2) | Elimination of systemic S. typhimurium infection / prevention of death (in words) ([2]; i.m. injection) | Suvivors (day 10) Number ([2]; i.m.) | Suvivors (day 10) Percentage ([2]; i.m.) | Elimination of systemic S. typhimurium infection / prevention of death (in words) ([2]; oral) | Suvivors (day 10) Number ([2]; oral) | Suvivors (day 10) Percentage ([2]; oral) | Serum Antibody Response [3] | Footpad Response (footpad swelling) [4] |
| --- | --- | --- | --- | --- | --- | --- | --- | --- | --- | --- | --- | --- | --- | --- | --- |
| lutenizing hormone releasing hormone [LHRH] | 1/3 | 1/4 | 1/5 | 0/5 | 0/5 | 1/5 | 1/5 |  |  |  |  |  |  |  |  |
| neomycin |  |  |  |  |  |  |  | could be saved | 2 | 100% | not able to eliminate systemic infection | 0 | 0% |  |  |
| vitamin B12 [VB12] |  |  |  |  |  |  |  |  |  |  |  | 0 | 0% | < 4 | 0 mm |
